According to patent US9695155B2, “Herbicidal substituted pyrimidinyloxy benzene compounds” (E. I. DU PONT DE NEMOURS AND COMPANY, priority 2013, dated 2017):

Assays:
barnyardgrass [1] = experiment: Test A preemergence; format: in vivo, Echinochloa crus-galli
Summary of the method: (§1)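 Pre- and postemergence greenhouse screen. Soil: loam + sand. Spray carrier: solvent mixture, non-phytotoxic, with surfactant. Post timing at 1–2 leaves, height 2–10 cm. Readout: visual injury on a 0–100 scale roughly 10 days after application, untreated plants as reference.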

johnsongrass = experiment: Test C postemergence; format: in vivo, Sorghum halepense
Summary of the method: (§2)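 Visual injury score versus untreated controls, 0 = no effect, 100 = complete control, taken 13 to 15 days after treatment in the greenhouse. Pre-emergence pots held loam/sand; post-emergence plants grew in sphagnum peat/vermiculite mix and were sprayed at the 1- to 4-leaf stage.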

lambsquarters = experiment: Test C postemergence; format: in vivo, Chenopodium album
Summary of the method: as §2

galium = experiment: Test C postemergence; format: in vivo, Galium aparine
Summary of the method: as §2

barnyardgrass [2] = experiment: Test C postemergence; format: in vivo, Echinochloa crus-galli
Summary of the method: as §2

pigweed [3] = experiment: Test A postemergence; format: in vivo, Amaranthus retroflexus
Summary of the method: as §1

oilseed rape = experiment: Test C postemergence; format: in vivo, Brassica napus
Summary of the method: as §2

pigweed [4] = experiment: Test A preemergence; format: in vivo, Amaranthus retroflexus
Summary of the method: as §1

waterhemp = experiment: Test C postemergence; format: in vivo, Amaranthus rudis
Summary of the method: as §2

giant foxtail = experiment: Test A preemergence; format: in vivo, Setaria faberii
Summary of the method: as §1

large (Lg) crabgrass = experiment: Test C postemergence; format: in vivo, Digitaria sanguinalis
Summary of the method: as §2

blackgrass = experiment: Test C postemergence; format: in vivo, Alopecurus myosuroides
Summary of the method: as §2

wild oat = experiment: Test C postemergence; format: in vivo, Avena fatua
Summary of the method: as §2

[5] = 125 g ai/ha, 0 to 100 scale where 0 is no effect and 100 is complete control
[6] = 500 g ai/ha, 0 to 100 scale, 0 no effect, 100 complete control, approx. 10 days
[7] = 16 g ai/ha, postemergence, visual rating, scale 0 to 100 (0 no effect, 100 complete control), 13 to 15 days
[8] = Postemergence, 31 g ai/ha, scale 0 to 100 (0 no effect, 100 complete control), 13 to 15 days
[9] = Postemergence, 62 g ai/ha, scale 0 to 100 (0 no effect, 100 complete control)

Fc1cccc(Oc2ncc(Cl)cn2)c1-n1cc(C(F)F)nn1 [Compound 141, 5-chloro-2-[2-[4-(difluoromethyl)-1H-1,2,3-triazol-1-yl]-3-fluorophenoxy]pyrimidine]
pest or weed control at 31 g/ha (barnyardgrass [1]; Echinochloa crus-galli, pre-emergence, 240 h, 31 g ai/ha, 0 to 100 scale where 0 is no effect and 100 is complete control, visual, approximately 10 days, read-out: Plant response rating, Barnyardgrass): 90% | pest or weed control at 125 g/ha (barnyardgrass [1]; Echinochloa crus-galli, pre-emergence, 240 h, 125 g ai/ha, 0 to 100 scale where 0 is no effect and 100 is complete control, read-out: Plant response rating, Barnyardgrass): 100% | pest or weed control at 16 g/ha (johnsongrass; Sorghum halepense, post-emergence, 16 g ai/ha, postemergence, 0 is no effect, 100 is complete control, read-out: Plant response rating (0 to 100), Johnsongrass): 5% | pest or weed control at 125 g/ha (johnsongrass; Sorghum halepense, post-emergence, 125 g ai/ha, postemergence, visual rating, scale 0 to 100 (0 no effect, 100 complete control), read-out: Plant response rating, Johnsongrass): 30% | pest or weed control at 62 g/ha (johnsongrass; Sorghum halepense, post-emergence, Postemergence, 62 g ai/ha, scale 0 to 100 (0 no effect, 100 complete control), read-out: Plant response rating, Johnsongrass): 10% | pest or weed control at 16 g/ha (lambsquarters; Chenopodium album, post-emergence, 16 g ai/ha, postemergence, 0 is no effect, 100 is complete control, read-out: Plant response rating (0 to 100), Lambsquarters): 85% | pest or weed control at 125 g/ha (lambsquarters; Chenopodium album, post-emergence, 125 g ai/ha, postemergence, visual rating, scale 0 to 100 (0 no effect, 100 complete control), read-out: Plant response rating, Lambsquarters): 100% | pest or weed control at 62 g/ha (lambsquarters; Chenopodium album, post-emergence, Postemergence, 62 g ai/ha, scale 0 to 100 (0 no effect, 100 complete control), read-out: Plant response rating, Lambsquarters): 100% | pest or weed control at 16 g/ha (galium; Galium, post-emergence, 16 g ai/ha, postemergence, 0 is no effect, 100 is complete control, read-out: Plant response rating (0 to 100), Galium): 90% | pest or weed control at 125 g/ha (galium; Galium, post-emergence, 125 g ai/ha, postemergence, visual rating, scale 0 to 100 (0 no effect, 100 complete control), read-out: Plant response rating, Galium): 100% | pest or weed control at 62 g/ha (galium; Galium, post-emergence, Postemergence, 62 g ai/ha, scale 0 to 100 (0 no effect, 100 complete control), read-out: Plant response rating, Galium): 98% | pest or weed control at 16 g/ha (barnyardgrass [2]; Echinochloa crus-galli, post-emergence, 16 g ai/ha, postemergence, 0 is no effect, 100 is complete control, read-out: Plant response rating (0 to 100), Barnyardgrass): 15% | pest or weed control at 125 g/ha (barnyardgrass [2]; Echinochloa crus-galli, post-emergence, 125 g ai/ha, postemergence, visual rating, scale 0 to 100 (0 no effect, 100 complete control), read-out: Plant response rating, Barnyardgrass): 40% | pest or weed control at 31 g/ha (barnyardgrass [2]; Echinochloa crus-galli, post-emergence, Postemergence, 31 g ai/ha, scale 0 to 100 (0 no effect, 100 complete control), 13 to 15 days, read-out: Plant response rating, Barnyardgrass): 15% | pest or weed control at 62 g/ha (barnyardgrass [2]; Echinochloa crus-galli, post-emergence, Postemergence, 62 g ai/ha, scale 0 to 100 (0 no effect, 100 complete control), read-out: Plant response rating, Barnyardgrass): 20% | pest or weed control at 31 g/ha (pigweed [3]; Amaranthus retroflexus, post-emergence, 31 g ai/ha, 0 to 100 scale, 0 no effect, 100 complete control, read-out: Plant response rating, Pigweed): 100% | pest or weed control at 125 g/ha (pigweed [3]; Amaranthus retroflexus, post-emergence, 240 h, 125 g ai/ha, 0 to 100 scale where 0 is no effect and 100 is complete control, read-out: Pigweed plant response rating): 100% | plant injury at 16 g/ha (oilseed rape; Brassica napus, post-emergence, 16 g ai/ha, postemergence, 0 is no effect, 100 is complete control, read-out: Plant response rating (0 to 100), Oilseed Rape): 50% | plant injury at 125 g/ha (oilseed rape; Brassica napus, post-emergence, 125 g ai/ha, postemergence, visual rating, scale 0 to 100 (0 no effect, 100 complete control), read-out: Plant response rating, Oilseed Rape): 98% | plant injury at 62 g/ha (oilseed rape; Brassica napus, post-emergence, Postemergence, 62 g ai/ha, scale 0 to 100 (0 no effect, 100 complete control), read-out: Plant response rating, Oilseed Rape): 95% | pest or weed control at 125 g/ha (pigweed [4]; Amaranthus retroflexus, pre-emergence, 125 g ai/ha, 0 to 100 scale where 0 is no effect and 100 is complete control, read-out: Plant response rating, Pigweed): 100% | pest or weed control at 31 g/ha (pigweed [4]; Amaranthus retroflexus, pre-emergence, 240 h, 31 g ai/ha, 0 to 100 scale where 0 is no effect and 100 is complete control, visual, approximately 10 days, read-out: Plant response rating, Pigweed): 100% | pest or weed control at 16 g/ha (waterhemp; Amaranthus tuberculatus, post-emergence, 16 g ai/ha, postemergence, 0 is no effect, 100 is complete control, read-out: Plant response rating (0 to 100), Waterhemp): 85% | pest or weed control at 125 g/ha (waterhemp; Amaranthus tuberculatus, post-emergence, 125 g ai/ha, postemergence, visual rating, scale 0 to 100 (0 no effect, 100 complete control), read-out: Plant response rating, Waterhemp): 100% | pest or weed control at 62 g/ha (waterhemp; Amaranthus tuberculatus, post-emergence, Postemergence, 62 g ai/ha, scale 0 to 100 (0 no effect, 100 complete control), read-out: Plant response rating, Waterhemp): 100% | pest or weed control at 31 g/ha (giant foxtail; Setaria faberi, pre-emergence, 240 h, 31 g ai/ha, 0 to 100 scale where 0 is no effect and 100 is complete control, visual, approximately 10 days, read-out: Plant response rating, Foxtail, Giant): 100% | pest or weed control at 125 g/ha (giant foxtail; Setaria faberi, pre-emergence, 240 h, 125 g ai/ha, 0 to 100 scale where 0 is no effect and 100 is complete control, read-out: Plant response rating, Foxtail, Giant): 100% | pest or weed control at 16 g/ha (large (Lg) crabgrass; Digitaria sanguinalis, post-emergence, 16 g ai/ha, postemergence, 0 is no effect, 100 is complete control, read-out: Plant response rating (0 to 100), Crabgrass, Large): 5% | pest or weed control at 125 g/ha (large (Lg) crabgrass; Digitaria sanguinalis, post-emergence, 125 g ai/ha, postemergence, visual rating, scale 0 to 100 (0 no effect, 100 complete control), read-out: Plant response rating, Crabgrass, Large): 45% | pest or weed control at 62 g/ha (large (Lg) crabgrass; Digitaria sanguinalis, post-emergence, Postemergence, 62 g ai/ha, scale 0 to 100 (0 no effect, 100 complete control), read-out: Plant response rating, Crabgrass, Large): 10% | pest or weed control at 16 g/ha (blackgrass; Alopecurus myosuroides, post-emergence, 16 g ai/ha, postemergence, 0 is no effect, 100 is complete control, read-out: Plant response rating (0 to 100), Blackgrass): 5% | pest or weed control at 125 g/ha (blackgrass; Alopecurus myosuroides, post-emergence, 125 g ai/ha, postemergence, visual rating, scale 0 to 100 (0 no effect, 100 complete control), read-out: Plant response rating, Blackgrass): 60% | pest or weed control at 31 g/ha (blackgrass; Alopecurus myosuroides, post-emergence, Postemergence, 31 g ai/ha, scale 0 to 100 (0 no effect, 100 complete control), 13 to 15 days, read-out: Plant response rating, Blackgrass): 35% | pest or weed control at 62 g/ha (blackgrass; Alopecurus myosuroides, post-emergence, Postemergence, 62 g ai/ha, scale 0 to 100 (0 no effect, 100 complete control), read-out: Plant response rating, Blackgrass): 35% | pest or weed control at 16 g/ha (wild oat; Avena fatua, post-emergence, 16 g ai/ha, postemergence, 0 is no effect, 100 is complete control, read-out: Plant response rating (0 to 100), Oat, Wild): 0% | pest or weed control at 125 g/ha (wild oat; Avena fatua, post-emergence, 125 g ai/ha, postemergence, visual rating, scale 0 to 100 (0 no effect, 100 complete control), read-out: Plant response rating, Oat, Wild): 30% | pest or weed control at 62 g/ha (wild oat; Avena fatua, post-emergence, Postemergence, 62 g ai/ha, scale 0 to 100 (0 no effect, 100 complete control), read-out: Plant response rating, Oat, Wild): 10%

Cc1cnc(Oc2cccc(C#N)c2-n2cc(C#N)cn2)nc1 [Compound 90]
Plant response rating, Barnyardgrass (barnyardgrass [1]; [5]): 70 | Barnyardgrass plant response rating (barnyardgrass [1]; [6]): 100 | Johnsongrass plant response rating (johnsongrass; [7]): 0 | Plant response rating (0 to 100), Johnsongrass (johnsongrass; 125 g ai/ha, postemergence): 5 | Plant response rating, Johnsongrass (johnsongrass; [8]): 5 | Plant response rating, Johnsongrass (johnsongrass; [9]): 5 | Plant response rating (0 to 100), Lambsquarters (lambsquarters; 125 g ai/ha, postemergence): 60 | Plant response rating, Lambsquarters (lambsquarters; [8]): 75 | Plant response rating, Lambsquarters (lambsquarters; [9]): 60 | Galium plant response rating (galium; [7]): 70 | Plant response rating (0 to 100), Galium (galium; 125 g ai/ha, postemergence): 85 | Plant response rating, Galium (galium; [8]): 55 | Plant response rating, Galium (galium; [9]): 65 | Barnyardgrass plant response rating (barnyardgrass [2]; [7]): 5 | Plant response rating (0 to 100), Barnyardgrass (barnyardgrass [2]; 125 g ai/ha, postemergence): 10 | Plant response rating, Barnyardgrass (barnyardgrass [2]; [8]): 5 | Plant response rating, Barnyardgrass (barnyardgrass [2]; [9]): 5 | Plant response rating, Pigweed (pigweed [3]; [5]): 100 | Plant response rating, Pigweed (pigweed [3]; 500 g ai/ha, 0 to 100 scale where 0 is no effect and 100 is complete control): 100 | Plant response rating (0 to 100), Oilseed Rape (oilseed rape; 125 g ai/ha, postemergence): 40 | Plant response rating, Oilseed Rape (oilseed rape; [8]): 5 | Plant response rating, Oilseed Rape (oilseed rape; [9]): 50 | Plant response rating, Pigweed (pigweed [4]; [5]): 100 | Pigweed plant response rating (pigweed [4]; [6]): 100 | Plant response rating (0 to 100), Waterhemp (waterhemp; 125 g ai/ha, postemergence): 75 | Plant response rating, Waterhemp (waterhemp; [8]): 35 | Plant response rating, Waterhemp (waterhemp; [9]): 65 | Plant response rating, Foxtail, Giant (giant foxtail; [5]): 90 | Foxtail, Giant plant response rating (giant foxtail; [6]): 100 | Crabgrass, Large plant response rating (large (Lg) crabgrass; [7]): 5 | Plant response rating (0 to 100), Crabgrass, Large (large (Lg) crabgrass; 125 g ai/ha, postemergence): 10 | Plant response rating, Crabgrass, Large (large (Lg) crabgrass; [8]): 5 | Plant response rating, Crabgrass, Large (large (Lg) crabgrass; [9]): 10 | Blackgrass plant response rating (blackgrass; [7]): 0 | Plant response rating (0 to 100), Blackgrass (blackgrass; 125 g ai/ha, postemergence): 15 | Plant response rating, Blackgrass (blackgrass; [8]): 0 | Plant response rating, Blackgrass (blackgrass; [9]): 5 | Plant response rating (0 to 100), Oat, Wild (wild oat; 125 g ai/ha, postemergence): 5 | Plant response rating, Oat, Wild (wild oat; [8]): 0 | Plant response rating, Oat, Wild (wild oat; [9]): 5
